Reference: patent US5120752A, “Cyclopropyl derivative lipoxygenase inhibitors” (Abbott Laboratories, priority 1990, dated 1992)
pIC50: −log10 of the molar value.

Columns and labels:
[1] = tested on: LTB4 biosynthesis in human whole blood; experiment: Inhibition of calcium ionophore-induced LTB4 biosynthesis in human whole blood; type: cell-based; conditions: for inhibition at 0.2 µM: read-out: Inhibition of Leukotriene Biosynthesis (% at 0.2 μM); for pIC50: A23187 50 μM, 15 min preincubation, read-out: Inhibition of Leukotriene Biosynthesis IC50
Method: Inhibition of leukotriene biosynthesis was evaluated in an assay, involving calcium ionophore-induced LTB4 biosynthesis expressed by human whole blood. Heparinized (20 U/mL) human blood (0.3 mL) was preincubated with test compound or vehicle for 15 min. at 37° C. Eicosanoid biosynthesis was initiated by adding calcium ionophore (A23187) in DMSO to a final concentration of 50 μM and terminated after 30 min. by rapid cooling of the blood in an ice bath and centrifuging at 3° C. for 10 min at 2500×g. The plasma was mixed with 4 volumes of methanol and allowed to stand for at least 30 min. at 3° C. prior to centrifuging at 1800×g for 10 min. The level of LTB4 in aliquots of the methanol-plasma extract was analyzed by radio-immunoassay or enyme-immunoassay techniques.

leukotriene biosynthesis = experiment: Inhibition of leukotriene biosynthesis in vivo after oral administration, rat peritoneal anaphylaxis model; conditions: 100 μmol/kg oral (gavage), 1 h before antigen challenge, read-out: % Inhibition of Leukotrienes at 100 μmol/kg oral dose
Method: Inhibition of the biosynthesis of leukotrienes in vivo after oral administration of representative test compounds of this invention was determined using a rat peritoneal anaphylaxis model in a similar manner as that described by Young and coworkers (Young, P. R.; Dyer, R. D.; Carter, G. W. Fed. Proc., Fed. Am. Soc. Exp. Biol. 1985, 44, 1185). In this model rats were injected intraperitoneally (ip) with rabbit antibody to bovine serum albumin (BSA) and three hours later injected ip with BSA to induce an antgen-antibody response. Rats were sacrificed 15 minutes after this challenge and the peritoneal fluids were collected and analyzed for leukotriene levels. Test compounds were administered by gavage one hour prior to the antigen challenge. Percent inhibition values were determined by comparing the treatment group to the mean of the control group. The results of this assay, for representative compounds of the present invention, at an oral dose level of […] are presented in Table 2, and at an oral dose of […] in Table 3.

Q: For `CNC(=O)N(O)C[C@@H]1C[C@H]1c1cccc(Oc2ccc(C)cc2)c1` (relative stereo) [Example 179, N-(1-trans-(2-(3-(4-methylphenoxy)phenyl)cyclopropyl)methyl)-N-hydroxy-N'-methylurea], which inhibition at 0.2 µM [1] is on record?
A: Its inhibition at 0.2 µM is 61%.

Q: What about the inhibition in vivo at 100 µmol/kg (leukotriene biosynthesis) of the same molecule?
A: The inhibition in vivo at 100 µmol/kg was 61%.

Q: How did the pIC50 [1] turn out when `NC(=O)N(O)C[C@@H]1C[C@H]1c1cccs1` (relative stereo) [Example 194, N-(1-trans-(2-(2-thienyl)cyclopropyl)methyl)-N-hydroxyurea] was run?
A: Its pIC50 is 6.43.

Q: What about the inhibition in vivo at 100 µmol/kg (leukotriene biosynthesis) of the same molecule?
A: Its inhibition in vivo at 100 µmol/kg is 97%.

Q: How did the pIC50 [1] turn out when `CC([C@@H]1C[C@H]1c1ccsc1)N(O)C(N)=O` (stereo partly drawn) [Example 189, N-(1-trans-(2-(3-thienyl)cyclopropyl)ethyl)-N-hydroxyurea] was run?
A: The pIC50 was 6.17.

Q: What about the inhibition in vivo at 100 µmol/kg (leukotriene biosynthesis) of the same molecule?
A: Its inhibition in vivo at 100 µmol/kg is 73%.

Q: `NC(=O)N(O)C[C@@H]1C[C@H]1c1ccco1` (relative stereo) [Example 198, N-(1-trans-(2-(2-furanyl)cyclopropyl)methyl)-N-hydroxyurea] was tested. Which pIC50 [1] did it give?
A: The pIC50 was 6.01.

Q: What about the inhibition in vivo at 100 µmol/kg (leukotriene biosynthesis) of the same molecule?
A: The inhibition in vivo at 100 µmol/kg was 90%.

Q: How did the pIC50 [1] turn out when `CNC(=O)N(O)C(C)[C@@H]1C[C@H]1c1ccc(C)s1` (stereo partly drawn) [Example 181, N-(1-trans-(2-(5-methyl-2-thienyl)cyclopropyl)ethyl)-N-hydroxy-N'-methylure] was run?
A: Its pIC50 is 6.22.

Q: `CNC(=O)N(O)C(C)[C@@H]1C[C@H]1c1ccco1` (stereo partly drawn) [Example 183, N-(1-trans-(2-(2-furanyl)cyclopropyl)ethyl)-N-hydroxy-N'-methylurea] was tested. Which pIC50 [1] did it give?
A: The pIC50 was 6.21.

Q: How did the pIC50 [1] turn out when `Cc1ccc([C@@H]2C[C@H]2C(C)N(O)C(N)=O)s1` (some centres unmarked) [Example 182] was run?
A: Its pIC50 is 6.16.

Q: Which results are given for `Cc1ccc(Oc2cccc([C@@H]3C[C@H]3C(C)N(O)C(N)=O)c2)cc1` (stereo partly drawn) [Example 180, N-(1-trans-(2-(3-(4-methylphenoxy)phenyl)cyclopropyl)ethyl)-N-hydroxyurea]?
A: pIC50 [1]: 6.16; inhibition in vivo at 100 µmol/kg (leukotriene biosynthesis): 85%

Q: How did the pIC50 [1] turn out when `CCc1ccc(Oc2cccc([C@@H]3C[C@H]3CN(O)C(N)=O)c2)cc1` (relative stereo) [Example 176, N-(1-trans-(2-(3-(4-ethylphenoxy)phenyl)cyclopropyl)methyl)-N-hydroxyurea] was run?
A: The pIC50 was 6.77.

Q: What about the inhibition in vivo at 100 µmol/kg (leukotriene biosynthesis) of the same molecule?
A: The inhibition in vivo at 100 µmol/kg was 87%.

Q: `NC(=O)N(O)C[C@@H]1C[C@H]1c1cccc(Oc2nccs2)c1` (relative stereo) [Example 166, N-(1-trans-(2-(3-(2-thiazolyloxy)phenyl)cyclopropyl)methyl)-N-hydroxyurea] was tested. Which pIC50 [1] did it give?
A: The pIC50 was 6.96.

Q: And the inhibition in vivo at 100 µmol/kg (leukotriene biosynthesis)?
A: The inhibition in vivo at 100 µmol/kg was 91%.

Q: How did the pIC50 [1] turn out when `CC([C@@H]1C[C@H]1c1ccoc1)N(O)C(N)=O` (stereo partly drawn) [Example 192, N-(1-trans-(2-(3-furanyl)cyclopropyl)ethyl)-N-hydroxyurea] was run?
A: Its pIC50 is 5.92.

Q: And the inhibition in vivo at 100 µmol/kg (leukotriene biosynthesis)?
A: Its inhibition in vivo at 100 µmol/kg is 71%.

Q: With `CCOc1ccc(Oc2cccc([C@@H]3C[C@H]3CN(O)C(N)=O)c2)cc1` (relative stereo) [Example 167, N-(1-trans-(2-(3-(4-ethoxyphenoxy)phenyl)cyclopropyl)methyl)-N-hydroxyurea] as the molecule, how does the pIC50 [1] read?
A: The pIC50 was 7.40.

Q: And the inhibition in vivo at 100 µmol/kg (leukotriene biosynthesis)?
A: The inhibition in vivo at 100 µmol/kg was 94%.

Q: `NC(=O)N(O)C[C@@H]1C[C@H]1c1ccsc1` (relative stereo) [Example 188, N-(1-trans-(2-(3-thienyl)cyclopropyl)methyl)-N-hydroxyurea] was tested. Which pIC50 [1] did it give?
A: Its pIC50 is 6.49.

Q: What about the inhibition in vivo at 100 µmol/kg (leukotriene biosynthesis) of the same molecule?
A: Its inhibition in vivo at 100 µmol/kg is 97%.

Q: With `CCCc1ccc(Oc2cccc([C@@H]3C[C@H]3CN(O)C(N)=O)c2)cc1` (relative stereo) [Example 169, N-(1-trans-(2-(3-(4-propylphenoxy)phenyl)cyclopropyl)methyl)-N-hydroxyurea] as the molecule, how does the pIC50 [1] read?
A: The pIC50 was 6.77.

Q: What about the inhibition in vivo at 100 µmol/kg (leukotriene biosynthesis) of the same molecule?
A: The inhibition in vivo at 100 µmol/kg was 98%.

Q: How did the inhibition at 0.2 µM [1] turn out when `NC(=O)N(O)C[C@@H]1C[C@H]1c1cccc(Oc2cccs2)c1` (relative stereo) [Example 178, N-(1-trans-(2-(3-(2-thienyloxy)phenyl)cyclopropyl)methyl)-N-hydroxyurea] was run?
A: The inhibition at 0.2 µM was 64%.

Q: What about the inhibition in vivo at 100 µmol/kg (leukotriene biosynthesis) of the same molecule?
A: The inhibition in vivo at 100 µmol/kg was 60%.

Q: With `NC(=O)N(O)C[C@@H]1C[C@H]1c1cnc(Oc2ccc(Cl)cc2)s1` (relative stereo) [Example 199, N-(1-trans-(2-(2-(4-chlorophenoxy)-5-thiazolyl)cyclopropyl)methyl)-N-hydroxyurea] as the molecule, how does the pIC50 [1] read?
A: The pIC50 was 7.22.

Q: How did the pIC50 [1] turn out when `CCOc1ccc(Oc2cccc([C@@H]3C[C@H]3CN(O)C(=O)NC3CC3)c2)cc1` (relative stereo) [Example 165] was run?
A: Its pIC50 is 6.13.

Q: Which inhibition at 0.39 µM ([1]; 0.39 μM, read-out: Inhibition of Leukotriene Biosynthesis (% at 0.39 μM)) does the source give for `CNC(=O)N(O)C[C@@H]1C[C@H]1c1cccc(Oc2ccccn2)c1` (relative stereo) [Example 171, N-(1-trans-(2-(3-(2-pyridyloxy)phenyl)cyclopropyl)methyl)-N-hydroxy-N'-methylurea] here?
A: Its inhibition at 0.39 µM is 40%.

Q: With `NC(=O)N(O)C[C@@H]1C[C@H]1c1cccc(Oc2cccnc2)c1` (relative stereo) [Example 168, N-(1-trans-(2-(3-(3-pyridyloxy)phenyl)cyclopropyl)methyl)-N-hydroxyurea] as the molecule, how does the pIC50 [1] read?
A: Its pIC50 is 7.30.

Q: And the inhibition in vivo at 100 µmol/kg (leukotriene biosynthesis)?
A: Its inhibition in vivo at 100 µmol/kg is 99%.

Q: `CNC(=O)N(O)C(C)[C@@H]1C[C@H]1c1ccsc1` (stereo partly drawn) [Example 186, N-(1-trans-(2-(3-thienyl)cyclopropyl)ethyl)-N-hydroxy-N'-methylurea] was tested. Which pIC50 [1] did it give?
A: Its pIC50 is 6.33.

Q: How did the pIC50 [1] turn out when `CNC(=O)N(O)C[C@@H]1C[C@H]1c1ccsc1` (relative stereo) [Example 187, N-(1-trans-(2-(3-thienyl)cyclopropyl)methyl)-N-hydroxy-N'-methylurea] was run?
A: Its pIC50 is 6.68.

Q: For `CNC(=O)N(O)C[C@@H]1C[C@H]1c1cccc(Oc2ccc(F)cc2)c1` (relative stereo) [Example 177, N-(1-trans-(2-(3-(4-fluorophenoxy)phenyl)cyclopropyl)methyl)-N-hydroxy-N'-methylurea], which inhibition at 0.2 µM [1] is on record?
A: The inhibition at 0.2 µM was 69%.

Q: `CC(=O)N(O)C[C@@H]1C[C@H]1c1cccs1` (relative stereo) [Example 190, N-(1-trans-(2-(2-thienyl)cyclopropyl)methyl)-N-hydroxyacetamide] was tested. Which pIC50 [1] did it give?
A: Its pIC50 is 6.70.

Q: `Cc1ccc(Oc2cccc([C@@H]3C[C@H]3C(C)CN(O)C(N)=O)c2)cc1` (stereo partly drawn) [Example 162, N-(2-trans-(2-(3-(4-methylphenoxy)phenyl)cyclopropyl)propyl)-N-hydroxyurea] was tested. Which pIC50 [1] did it give?
A: Its pIC50 is 6.60.

Q: How did the pIC50 [1] turn out when `CC([C@@H]1C[C@H]1c1cccs1)N(O)C(N)=O` (stereo partly drawn) [Example 197, N-(1-trans-(2-(2-thienyl)cyclopropyl)ethyl)-N-hydroxyurea] was run?
A: The pIC50 was 5.80.

Q: How did the pIC50 [1] turn out when `CCc1ccc(Oc2cccc([C@@H]3C[C@H]3CN(O)C(=O)NC)c2)cc1` (relative stereo) [Example 175, N-(1-trans-(2-(3-(4-ethylphenoxy)phenyl)cyclopropyl)methyl)-N-hydroxy-N'-methyl-hydroxyurea] was run?
A: Its pIC50 is 6.70.

Q: With `NC(=O)N(O)C[C@@H]1C[C@H]1c1cccc(Oc2ccc(O)cc2)c1` (relative stereo) [Example 160, N-(1-trans-(2-(3(4-hydroxyphenoxy)phenyl)cyclopropyl)methyl)-N-hydroxyurea] as the molecule, how does the pIC50 [1] read?
A: The pIC50 was 6.33.

Q: How did the pIC50 [1] turn out when `Cc1cccc(Oc2cccc([C@@H]3C[C@H]3CN(O)C(N)=O)c2)c1` (relative stereo) [Example 174, N-(1-trans-(2-(3-(3-methylphenoxy)phenyl)cyclopropyl)methyl)-N-hydroxyurea] was run?
A: The pIC50 was 6.85.

Q: And the inhibition in vivo at 100 µmol/kg (leukotriene biosynthesis)?
A: Its inhibition in vivo at 100 µmol/kg is 96%.

Q: For `Cc1ccccc1Oc1cccc([C@@H]2C[C@H]2CN(O)C(N)=O)c1` (relative stereo) [Example 170, N-(1-trans-(2-(3-(2-methylphenoxy)phenyl)cyclopropyl)methyl)-N-hydroxyurea], which inhibition at 0.1 µM ([1]; 0.1 μM, read-out: Inhibition of Leukotriene Biosynthesis (% at 0.1 μM)) is on record?
A: Its inhibition at 0.1 µM is 89%.

Q: What about the inhibition in vivo at 100 µmol/kg (leukotriene biosynthesis) of the same molecule?
A: The inhibition in vivo at 100 µmol/kg was 94%.

Q: `CNC(=O)N(O)C[C@@H]1C[C@H]1c1ccoc1` (relative stereo) [Example 185, N-(1-trans-(2-(3-furanyl)cyclopropyl)methyl)-N-hydroxy-N'-methylurea] was tested. Which pIC50 [1] did it give?
A: The pIC50 was 6.62.

Q: How did the pIC50 [1] turn out when `CNC(=O)N(O)C[C@@H]1C[C@H]1c1cccc(Oc2cccc(C)c2)c1` (relative stereo) [Example 173, N-(1-trans-(2-(3-(3-methylphenoxy)phenyl)cyclopropyl)methyl)-N-hydroxy-N-methylurea] was run?
A: The pIC50 was 6.64.

Q: With `CC([C@@H]1C[C@H]1c1cccc(Oc2ccccn2)c1)N(O)C(N)=O` (single isomer, unassigned) [Example 172a, N-(1-trans-(2-(3-(2-pyridyloxy)phenyl)cyclopropyl)ethyl)-N-hydroxyurea] as the molecule, how does the pIC50 [1] read?
A: The pIC50 was 6.02.

Q: How did the pIC50 [1] turn out when `CNC(=O)N(O)C(C)[C@@H]1C[C@H]1c1ccc(C)o1` (stereo partly drawn) [Example 184, N-(1-trans-(2-(5-methyl-2-furanyl)cyclopropyl)ethyl)-N-hydroxy-N'-methylurea] was run?
A: Its pIC50 is 6.07.

Q: With `Cc1cccc(Oc2cccc([C@@H]3C[C@H]3CN(O)C(N)=O)c2)n1` (relative stereo) [Example 163, N-(1-trans-(2-(3-(6-methyl-2-pyridyloxy)phenyl)cyclopropyl)methyl)-N-hydroxyurea] as the molecule, how does the pIC50 [1] read?
A: Its pIC50 is 6.60.

Q: `NC(=O)N(O)C[C@@H]1C[C@H]1c1cccc(Oc2ccc(OCCO)cc2)c1` (relative stereo) [Example 161, N-(1-trans-(2-(3-(4-(2-hydroxyethoxy)phenoxy)phenyl)cyclopropyl)methyl)-N-hydroxyurea] was tested. Which pIC50 [1] did it give?
A: The pIC50 was 6.77.
